Test results: article PMC11088877, “AMP-activated protein kinase can be allosterically activated by ADP but AMP remains the key activating ligand” (Biochemical Journal, 2024)
pEC50, pIC50, pKd: −log10 of the molar value. Several values for one entry are separate records, joined by “and”; a condition that tells them apart may be missing. Identical values can stand only once. Like-named read-outs stand apart in the source and are kept apart here.

What was measured:
[1] = target: T1, human α2β2γ1 complex, CBS4 mutant (I312G) (Homo sapiens, UniProt P54619+P54646, I312G); test: Allosteric activation of CBS4 mutant human α2β2γ1 AMPK complex; type: biochemical; conditions: for Activation (maximal) / pIC50 / pEC50 / IC50/EC50: α2β2γ1 CBS4 mutant
T1 construct: made in house; host or cells: Escherichia coli
T1 sequence (P54619 whole entry I312G): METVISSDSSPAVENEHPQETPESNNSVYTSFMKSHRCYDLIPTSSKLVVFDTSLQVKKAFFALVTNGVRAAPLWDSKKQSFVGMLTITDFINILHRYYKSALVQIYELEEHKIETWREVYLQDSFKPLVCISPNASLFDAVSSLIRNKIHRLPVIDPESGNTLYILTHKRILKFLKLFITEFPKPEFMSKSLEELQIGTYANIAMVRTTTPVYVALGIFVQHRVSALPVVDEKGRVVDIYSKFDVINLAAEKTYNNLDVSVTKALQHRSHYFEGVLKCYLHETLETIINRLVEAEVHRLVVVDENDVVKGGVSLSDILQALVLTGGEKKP
T1 sequence (P54646 whole entry): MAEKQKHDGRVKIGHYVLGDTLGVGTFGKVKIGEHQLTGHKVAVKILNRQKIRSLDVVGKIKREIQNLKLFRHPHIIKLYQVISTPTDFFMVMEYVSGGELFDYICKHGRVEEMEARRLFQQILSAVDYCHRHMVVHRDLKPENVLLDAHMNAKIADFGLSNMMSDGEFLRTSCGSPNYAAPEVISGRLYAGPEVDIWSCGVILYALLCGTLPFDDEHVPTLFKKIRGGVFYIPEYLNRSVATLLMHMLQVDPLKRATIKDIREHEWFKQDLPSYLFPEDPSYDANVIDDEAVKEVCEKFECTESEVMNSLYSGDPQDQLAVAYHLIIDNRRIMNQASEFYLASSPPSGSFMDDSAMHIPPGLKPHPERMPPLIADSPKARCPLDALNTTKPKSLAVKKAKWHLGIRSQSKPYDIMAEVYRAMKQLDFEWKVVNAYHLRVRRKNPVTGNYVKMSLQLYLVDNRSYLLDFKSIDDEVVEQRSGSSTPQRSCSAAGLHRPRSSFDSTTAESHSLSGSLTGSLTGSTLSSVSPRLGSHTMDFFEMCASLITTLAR
T1 sequence (O43741 whole entry partner): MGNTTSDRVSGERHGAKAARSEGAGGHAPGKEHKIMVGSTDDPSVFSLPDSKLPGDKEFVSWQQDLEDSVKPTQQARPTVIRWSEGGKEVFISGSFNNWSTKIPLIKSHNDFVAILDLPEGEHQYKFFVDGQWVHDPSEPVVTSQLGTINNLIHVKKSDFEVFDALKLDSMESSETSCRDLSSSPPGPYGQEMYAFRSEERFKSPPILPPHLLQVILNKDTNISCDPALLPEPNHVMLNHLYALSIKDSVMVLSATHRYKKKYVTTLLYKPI
Excerpt: To study allosteric activation with a more well-defined AMPK complex, and to study the effects of mutations in individual adenine nucleotide-binding sites on the γ subunit, we expressed a human α2β2γ1 complex in Escherichia coli and purified it utilizing the polyhistidine tag at the N-terminus of the α2 subunit. […] However, it had not been co-expressed with an N-myristoyl transferase so would not have been N-myristoylated on the β2 subunit. The complex was expressed not only with the WT γ1 sequence but also with mutations affecting hydrophobic residues previously shown to be involved in binding of the adenine moieties of nucleotides at CBS1 (L129D/V130D), CBS3 (V276G/L277G) and CBS4 (I312G). All four complexes co-purified as heterotrimeric 1:1:1 complexes as expected, and were phosphorylated and activated equally well either by CaMKK2 or the LKB1: STRADα:MO25α complex (Supplementary Figure S2). For the studies described below we phosphorylated Thr172 using a GST-tagged CaMKK2 and repurified AMPK using size exclusion chromatography and a glutathione-Sepharose column, which remove CaMKK2.
Figure 4. Allosteric activation of WT and mutant human α2β2γ1 AMPK complex by AMP and ADP at three different concentrations of ATP. The α2β2γ1 complex was phosphorylated on Thr172 prior to assay using CaMKK2. The γ1 subunit was either (A/E): WT; (B/F): a CBS1 mutant (L129D/V130D); (C/G): a CBS3 mutant (V276G/L277G); (D/H): a CBS4 mutant (I312G). Results are means of duplicate assays ± SD; error bars are not shown if they were smaller than the symbols used for mean values. Assays and curve fitting were as in Figure 1 at either 0.2 mM (left panels) or 5 mM (right panels) ATP. Best-fit values for all parameters used to generate the curves are listed in Supplementary Table S1.
Sources of antibodies were as described: pThr172 (AMPK-α: Cell Signaling Technologies, Danvers, MA, U.S.A., Cat# 2535), AMPK-α2 [22]. Rat liver AMPK was purified as described previously. Plasmid encoding human (His)6-tagged AMPK (α2β2γ1, bacterially expressed) generated as in [23], was a gift from AstraZeneca, Cambridge, U.K. The L129D/V130D (CBS1), V276G/L277G (CBS3) and I312G (CBS4) mutations in the α2β2γ1 complex were generated using the Quikchange II site-directed mutagenesis kit (Agilent Technologies) and confirmed by DNA sequencing. Human GST-tagged α2 kinase domain (1–310), LKB1:STRAD-α:MO25-α complexes, GST-tagged CaMKK2 [26], and PPM1A (PP2Cα) were produced as described. Bacterially expressed heterotrimers were activated by phosphorylation of Thr172 by GST-tagged CaMKK2 in the presence of ATP, and CaMKK2 was subsequently removed by passage through glutathione-Sepharose. Human GST-tagged α2 kinase domain was activated in a similar manner except that human (His)6-tagged LKB1:STRAD-α:MO25-α complex was used and removed after activation via passage through a His-Trap column. Recombinant human 5′-nucleotidase, CD73, Cat # 5795-EN-01, was from R&D systems (Minneapolis, MN, U.S.A.).
AMPK assays measured the transfer of radioactivity from [γ-^33P]ATP to a peptide substrate, which was separated from unreacted ATP by binding to P81 paper. This assay was described previously except that we used [γ-^33P] rather than [γ-^32P]ATP. In some assays (specified in Figure legends) the concentration of ATP was increased from 0.2 to 1 or 5 mM ATP, with MgCl2 concentrations maintained at a constant 4.8 mM excess above the concentration of ATP [19]. Where allosteric activation by AMP or ADP was being studied, we used the SAMS peptide as substrate. For all other assays the AMARA peptide was used.

[2] = target: bacterially expressed AMPK heterotrimers (γ subunit CBS sites); conditions: cited from earlier work
[3] = target: T1, human α2β2γ1 complex, CBS4 mutant (I312G); test: AMPK inactivation and Thr172 dephosphorylation by PPM1A, CBS4 mutant; type: biochemical; conditions: 300 µM nucleotide, absence of ATP
Method: The relative roles of the three CBS sites in the other two mechanisms of activation of AMPK by AMP or ADP, i.e. promotion of Thr172 phosphorylation by LKB1, and protection against Thr172 dephosphorylation by protein phosphatases, have not been examined previously. As expected, incubation of the α2β2γ1 AMPK complex with a fixed, limiting amount of purified LKB1:STRADα:MO25α complex in the presence of 200 µM Mg.ATP^2− caused a large degree of activation (Figure 5A) and phosphorylation (Figure 5B) of AMPK (unphosphorylated α2β2γ1 complex), which were stimulated more than 2-fold by 300 µM AMP and 1.6-fold by 300 µM ADP.
Figure 6. Effects of AMP or ADP on AMPK inactivation and Thr172 dephosphorylation by PP2Cα (PPM1A). Human α2β2γ1 complexes (WT, or with L129D/V130D, V276G/L277G or I312G mutations affecting CBS1, CBS3 or CBS4 respectively), all phosphorylated on Thr172, were incubated with a fixed concentration of PP2Cα (PPM1A) in the presence or absence of AMP or ADP (both 300 µM) as described in the Materials and methods section. After the incubation, aliquots were withdrawn for (A) AMPK assay or (B) Western blots. […] For (B), due to a limit on the number of lanes that could be run on one gel, single replicates from the triplicate assays were analysed. […]

[4] = in the presence of Mg2+ and staurosporine, read-out: estimated Kd at the CBS3 site

Compound | Activation (maximal) ([1]; 0.2 mM ATP) | pIC50 ([1]; 0.2 mM ATP) | Activation (maximal) ([1]; 5.0 mM ATP) | pIC50 ([1]; 5.0 mM ATP) | pKd [2, 4] | protective effect of nucleotide against PPM1A in the mutant [3] | increase of EC50 for activation relative to WT ([1]; α2β2γ1 CBS4 mutant vs WT, 0.2 mM ATP) [fold] | increase of EC50 relative to WT ([1]; α2β2γ1 CBS4 mutant vs WT, 5 mM ATP) | pEC50 ([1]; 0.2 mM ATP) | IC50/EC50 ([1]; 0.2 mM ATP) | pEC50 ([1]; 5.0 mM ATP) | IC50/EC50 ([1]; 5.0 mM ATP) | pKd ([2]; various bacterially expressed heterotrimers, read-out: Kd, AMP-binding site of high affinity) | pKd ([2]; various bacterially expressed heterotrimers, read-out: Kd, AMP-binding site of low affinity)
Nc1ncnc2c1ncn2[C@@H]1O[C@H](COP(=O)(O)OP(=O)(O)O)[C@@H](O)[C@H]1O [ADP] | did not cause allosteric activation and none | 3.11 | essentially abolished allosteric activation and none | 1.51 | 4.62 to 4.92 | almost completely abolished |  |  |  |  |  |  |  | 
Nc1ncnc2c1ncn2[C@@H]1O[C@H](COP(=O)(O)O)[C@@H](O)[C@H]1O [AMP] | 2.1 fold and 2.1 (2.0-2.1) fold | 2.48 | 2.0- to 2.5 fold and 2.1 (1.9-2.4) fold | 1.55 | 5.70 to 6.00 | almost completely abolished | 40 | 10- to 20 fold | 4.42 | 87 | 3.55 | 100 | 5.40 to 5.70 | 3.40 to 4.40
